Experiment [1] deals with IL-1β secretion from human monocytes. In words: IL-1β secretion (ELISA) and maturation (western blot) from human monocytes exposed to P. acnes or inflammasome activators. The class given is cell-based. As to conditions: upLPS-primed human monocytes, P. acnes MOI=100, 6 h; Glibenclamide or KCl 65 mM added one hour prior, FIG. 3f. The procedure:
For Western blotting cell culture supernatants were precipitated by addition of 0.25 volumes of trichloroacetic acid (100% w/v), 10 min incubation on ice and centrifugation for 5 min at 14,000 g. Protein pellet was washed twice with ice-cold acetone, centrifuged as described above and dried at 70° C. Cells were lysed with buffer (10 mM Tris pH 7.5, 1% NP-40, 150 mM NaCl, 5 mM EDTA,) containing a protease inhibitor cocktail. Proteins were separated on a NuPAGE gel in accordance with the manufacturer's protocol and transferred to a Hybond-C-Extra membrane by electroblotting. […] Appropriate HRP-conjugated secondary antibodies were used and proteins were detected using ECL reagent. […]
Human monocytes were primed with upLPS and infected with P. acnes (MOI=100) or stimulated with MSU crystals ([…]) in the presence of vehicle (DMSO) or pan-caspase inhibitor (Z-VAD-fmk, […]) for 24 h (FIG. 2a). IL-1β secretion was determined by ELISA and mature IL-1β release (IL-1β p17) by western blot. […]
THP1 cells were treated with vehicle (DMSO) or cytochalasin D (Cyt. D, […]) for one hour and then incubated with CFSE-labeled P. acnes (MOI=100) for 4 h or left untreated (FIG. 3a). Bacteria uptake was analyzed by FACS. […] IL-1β (FIG. 3f) and TNFα (FIG. 3g) release were determined after 6 h by ELISA. […]
On the technique in general: In an ELISA, binding on a coated surface is turned into a signal by an enzyme label.

The test system of a further experiment is C57BL/6 WT mice. In words: Intradermal P. acnes ear inflammation model in WT mice. It is filed as in vivo, mouse. As to conditions: for ear swelling: intradermal P. acnes 20×10^6 CFU, 24 h, i.p. IL-1Ra 150 mg/kg three times at 8 h intervals or single i.p. anti-IL1β antibody, FIG. 4a; for subcutaneous neutrophil infiltration: intradermal P. acnes, histology (HE), i.p. IL-1Ra or anti-IL1β antibody, FIG. 4d. Here is the method: (§1) C57BL/6 mice received three intraperitoneal (i.p.) injections of IL-1 receptor antagonist (IL-1Ra, Anakinra, 150 mg/kg) or PBS at 8 h intervals. One hour after first i.p. injection of IL-1Ra mice received intradermal injections of P. acnes or PBS. TNFα inhibitor (Etanercept) and anti-IL-1β antibody treated mice (Canakinumab, […]) C57BL/6 mice received i.p. injection 24 h before an intradermal injection of P. acnes or PBS. To make bone marrow chimeras indicated mice were lethally irradiated (10 Gy) and subsequently transplanted with indicated bone marrow. After bone marrow reconstitution (8 weeks later) mice were interdermally injected with P. acnes or PBS.
(§2) The ear thickness was measured using a micro caliper before and 24 h after bacterial injection. The percentage of ear thickness was calculated by comparing the ear thickness before and 24 hours after injection.
(§3) WT mice were injected intradermally with P. acnes (20×10^6 CFU/[…] in PBS, left ear) or with an equal amount of PBS (right ear) (FIG. 4a). Mice were treated with vehicle (n=11) or three intraperitoneal injections of IL-1Ra (Anakinra, 150 mg/kg, n=13) at the 8 h intervals or a single i.p. injection of anti-IL1β antibody ([…]) one hour prior to P. acnes or PBS challenge. The ear swelling as measured 24 hrs later is presented. ASC^−/− mice were challenged the same way with P. acnes. The resulting ear swelling (FIG. 4b) and pro- and mature-IL1β in ear extracts (FIG. 4c) are presented. […] WT mice reconstituted with WT (n=8-10), ASC^−/− (n=12) or NLRP3^−/− (n=8) bone marrow were challenged with P. acnes or PBS as described above. The resulting swelling (FIG. 4e) and histology of the infected ear (FIG. 4f) are presented. TLR2^−/− (n=10) were intradermally injected with P. acnes or PBS one hour after treatment with IL-1Ra (n=10) or anti-IL-1β antibody (n=9) as described above. The resulting ear swelling (FIG. 4g) and histology (FIG. 4i) are presented.

Another experiment has as its system TLR2−/− mice. Briefly: Intradermal P. acnes ear inflammation model in TLR2-deficient mice. The class given is in vivo, mouse. As to conditions: treatment with IL-1Ra or anti-IL-1β antibody; for development of cutaneous inflammation: histology, FIG. 4i; for development of ear swelling: FIG. 4g. Here is the method: as §1, §2, §3

On to `[Cl-].[K+]` [KCl], for which, in experiment [1], the IL-1β release entry is given as “significant reduction”.
As to Anakinra [IL-1Ra], in the experiment with C57BL/6 WT mice, the ear swelling result was “significant reduction” and the subcutaneous neutrophil infiltration entry is recorded as “significant reduction”. Also, the subcutaneous neutrophil infiltration entry in the experiment on C57BL/6 WT mice (listed as IL-1 receptor antagonist) is given as “selective blockade”. In the experiment with TLR2−/− mice, the “development of cutaneous inflammation” value is given as “blocked” and the “development of ear swelling” value is recorded as “blocked”.
With `COc1ccc(Cl)cc1C(=O)NCCc1ccc(S(=O)(=O)NC(=O)NC2CCCCC2)cc1` [glibenclamide, 5-Chloro-N-[2-[4-(cyclohexylcarbamoylsulfamoyl)phenyl]ethyl]-2-methoxy-benzamide], in experiment [1], the IL-1β release result was “significant reduction”.

B1: Canakinumab (antibody, V domains shown)
VH: QVQLVESGGGVVQPGRSLRLSCAASGFTFSVYGMNWVRQAPGKGLEWVAIIWYDGDNQYYADSVKGRFTISRDNSKNTLYLQMNGLRAEDTAVYYCARDLRTGPFDYWGQGTLVTVSS
VL: EIVLTQSPDFQSVTPKEKVTITCRASQSIGSSLHWYQQKPDQSPKLLIKYASQSFSGVPSRFSGSGSGTDFTLTINSLEAEDAAAYYCHQSSSLPFTFGPGTKVDIK
modifications: antibody fragment
notes: Id; No. 1 and 2
Consider B1, for which, in the experiment on C57BL/6 WT mice, the ear swelling entry was “significant reduction” and the subcutaneous neutrophil infiltration result is “significant reduction”. Besides, in the experiment on C57BL/6 WT mice (listed as monoclonal anti-IL1β antibody), the subcutaneous neutrophil infiltration entry is listed as “selective blockade”. For the same molecule, in the experiment on TLR2−/− mice, the “development of cutaneous inflammation” value is given as “blocked” and the “development of ear swelling” value is recorded as “blocked”.

Source of the values: US9707272B2, “Method for the treatment of acne by administering IL-1β antibody” (UNIVERSITAT ZURICH, priority 2011, dated 2017).
